This note sets out measurements from article PMC11200976, “Pitavastatin Calcium Confers Fungicidal Properties to Fluconazole by Inhibiting Ubiquinone Biosynthesis and Generating Reactive Oxygen Species” (Antioxidants, 2024).

The subject of this experiment is C. albicans. The experiment in a line: Broth microdilution assay of synergistic lethality with 4 μg/mL FLC (recovery on drug-free YPD). It is filed as cell-based, Candida albicans.
Setting [1] is: concentration of the compound that is synergistically lethal with 4 μg/mL FLC, C. albicans, recovery on drug-free YPD.

Counter-ions that a name gives are not always drawn. Like-named read-outs stand apart in the source and are kept apart here.

Consider `CC(C)(C)c1cc(NC(=O)Nc2ccc(-c3cn4c(n3)sc3cc(OCCN5CCOCC5)ccc34)cc2)no1` [Quizartinib], for which the Synergistic lethal concentrations under setting [1] was 6.25 µM. Consider `COC(=O)[C@H]1[C@H]2C[C@@H]3c4[nH]c5cc(OC)ccc5c4CCN3C[C@H]2C[C@@H](OC(=O)c2cc(OC)c(OC)c(OC)c2)[C@@H]1OC.Cl` [Reserpine (hydrochloride)], for which the Synergistic lethal concentrations under setting [1] came to 100 µM. Consider `COC(=O)[C@H]1[C@H]2C[C@@H]3c4[nH]c5cc(OC)ccc5c4CCN3C[C@H]2C[C@@H](OC(=O)c2cc(OC)c(OC)c(OC)c2)[C@@H]1OC` [Reserpine], for which the Synergistic lethal concentrations under setting [1] came out at 50 µM.

For `C[C@@H](OC[C@@]1(c2ccccc2)CC[C@]2(CCC(=O)N2)CN1)c1cc(C(F)(F)F)cc(C(F)(F)F)c1` [Rolapitant], the Synergistic lethal concentrations under setting [1] was found to be 12.5 µM.

In the case of `CC(C)c1nc(N(C)S(C)(=O)=O)nc(-c2ccc(F)cc2)c1/C=C/[C@@H](O)C[C@@H](O)CC(=O)[O-].CC(C)c1nc(N(C)S(C)(=O)=O)nc(-c2ccc(F)cc2)c1/C=C/[C@@H](O)C[C@@H](O)CC(=O)[O-].[Ca+2]` [Rosuvastatin (Calcium)], the Synergistic lethal concentrations under setting [1] is 50 µM. Still for that read-out and setting: with `OCc1cc(C(O)CNCCCCCCOCCCCc2ccccc2)ccc1O` (stereo not drawn) [Salmeterol] the figure was 100 µM. On the same count and under the same terms, the value for `CC(C)(C)NC(=O)[C@@H]1C[C@@H]2CCCC[C@@H]2CN1C[C@@H](O)[C@H](Cc1ccccc1)NC(=O)[C@H](CC(N)=O)NC(=O)c1ccc2ccccc2n1` [Saquinavir] was 50 µM. Regarding `CO[C@H]1C[C@H](O[C@@H]2/C(C)=C/C[C@@H]3C[C@@H](C[C@]4(CC[C@H](C)[C@@H](C5CCCCC5)O4)O3)OC(=O)[C@@H]3C=C(C)/C(=N/O)[C@H]4OC/C(=C\C=C\[C@@H]2C)[C@]43O)O[C@@H](C)[C@@H]1O` [Selamectin], the Synergistic lethal concentrations worked out at 12.5 µM. For the compound `O=C1NCCN1CCN1CCC(c2cn(-c3ccc(F)cc3)c3ccc(Cl)cc23)CC1` [Sertindole], under setting [1], the Synergistic lethal concentrations was 25 µM.

With `CN[C@H]1CC[C@@H](c2ccc(Cl)c(Cl)c2)c2ccccc21.Cl` [Sertraline (hydrochloride)], the Synergistic lethal concentrations under setting [1] amounted to 25 µM. Take `O=C(O)CCC(=O)O.O=C(O[C@H]1CN2CCC1CC2)N1CCc2ccccc2[C@@H]1c1ccccc1` [Solifenacin (Succinate)]: the Synergistic lethal concentrations under setting [1] came out at 100 µM. Same read-out and setting: the value for `CCOc1ccc(Cc2cc([C@@H]3O[C@H](SC)[C@@H](O)[C@H](O)[C@H]3O)ccc2Cl)cc1` [Sotagliflozin] was 100 µM; that for `CC(C)(C)C(O)/C=C/c1ccc2c(c1)OCO2` (stereo not drawn) [Stiripentol] was 100 µM; that for `COc1cc(C)c2c(Oc3cccc(C(F)(F)F)c3)c(OC)cc(NC(C)CCCN)c2n1.O=C(O)CCC(=O)O` (stereo not drawn) [Tafenoquine (Succinate)] was 25 µM. Regarding `Cn1ncnc1[C@H]1c2n[nH]c(=O)c3cc(F)cc(c23)N[C@@H]1c1ccc(F)cc1` [Talazoparib tosylate], the Synergistic lethal concentrations under setting [1] was 100 µM. The same measure, in the same setting: with `CCCCCNC(=N)N/N=C/c1c[nH]c2ccc(OC)cc12.O=C(O)/C=C\C(=O)O` [Tegaserod (maleate)] the figure was 6.25 µM; with `CN(C/C=C/C#CC(C)(C)C)Cc1cccc2ccccc12` [Terbinafine], 6.25 µM. As for `CC(C)(CO)c1cc2cc(NC(=O)C3(c4ccc5c(c4)OC(F)(F)O5)CC3)c(F)cc2n1C[C@@H](O)CO` [Tezacaftor], under setting [1], the Synergistic lethal concentrations amounted to 100 µM. In the case of `CSc1ccc2c(c1)N(CCC1CCCCN1C)c1ccccc1S2.Cl` (stereo not drawn) [Thioridazine (hydrochloride)], the Synergistic lethal concentrations under setting [1] was 100 µM. Still for that read-out and setting: with `CCCCCCCCCCCCCCCC[N+](C)(C)CCN(Cc1ccc(OC)cc1)c1ncccn1.[Br-]` [Thonzonium (bromide)] the figure was 100 µM.

On to `O=C(O)Cc1cc(I)c(Oc2ccc(O)c(I)c2)c(I)c1` [Tiratricol], for which the Synergistic lethal concentrations under setting [1] is 100 µM.
